Test results as given in patent US20230017045A1, “PYRIDINE AND PYRIMIDINE CARBOXYLATE HERBICIDES AND METHODS OF USE THEREOF” (Dow AgroSciences LLC, priority 2017, published 2023).
Like-named read-outs stand apart in the source and are kept apart here.

Test system: test plant species
Assay: Post-emergent herbicidal activity test (greenhouse, foliar spray, visual growth reduction)
Assay type: in vivo
Conditions: post-emergence, 336 h, 140 g ai/ha
Outline: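 Greenhouse plants at first–second true leaf stage sprayed overhead at 187 L/ha with compound in acetone/water/isopropanol/DMSO/crop oil/X-77 carrier; controls received solvent blank. Injury rated visually after 14 d on a 0–100% scale versus untreated and control plants, converted to growth reduction.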

[1] = ECHCG: barnyardgrass (Echinochloa crus-galli), 14 days after application, read-out: Visual Growth Reduction (%) 14 Days After Application, ECHCG
[2] = IPOHE: ivy-leaf morning glory (Ipomoea hederacea), 14 days after application, read-out: Visual Growth Reduction (%) 14 Days After Application, IPOHE
[3] = KCHSC: kochia (Bassia scoparia), 14 days after application, read-out: Visual Growth Reduction (%) 14 Days After Application, KCHSC
[4] = ORYSA: rice (Oryza sativa), 14 days after application, read-out: Visual Growth Reduction (%) 14 Days After Application, ORYSA
[5] = SETFA: giant foxtail (Setaria faberi), 14 days after application, read-out: Visual Growth Reduction (%) 14 Days After Application, SETFA
[6] = SORVU: grain sorghum (Sorghum vulgare), 14 days after application, read-out: Visual Growth Reduction (%) 14 Days After Application, SORVU
[7] = STEME: common chickweed (Stellaria media), 14 days after application, read-out: Visual Growth Reduction (%) 14 Days After Application, STEME
[8] = TRZAS: wheat, spring (Triticum aestivum), 14 days after application, read-out: Visual Growth Reduction (%) 14 Days After Application, TRZAS
[9] = blackgrass (Alopecurus myosuroides), 14 Days After Application, read-out: Visual Growth Reduction (%) ALOMY
[10] = canada thistle (Cirsium arvense), 14 Days After Application, read-out: Visual Growth Reduction (%) CIRAR
[11] = crabgrass (Digitaria sanguinalis), 14 Days After Application, read-out: Visual Growth Reduction (%) DIGSA
[12] = lambsquarters (Chenopodium album), 14 Days After Application, read-out: Visual Growth Reduction (%) CHEAL
[13] = redroot pigweed (Amaranthus retroflexus), 14 Days After Application, read-out: Visual Growth Reduction (%) AMARE
[14] = wild oat (Avena fatua), 14 Days After Application, read-out: Visual Growth Reduction (%) AVEFA
[15] = yellow nutsedge (Cyperus esculentus), 14 Days After Application, read-out: Visual Growth Reduction (%) CYPES
[16] = ALOMY: blackgrass (Alopecurus myosuroides), 14 days after application, read-out: Visual Growth Reduction (%) 14 Days After Application, ALOMY
[17] = AMARE: redroot pigweed (Amaranthus retroflexus), 14 days after application, read-out: Visual Growth Reduction (%) 14 Days After Application, AMARE
[18] = AVEFA: wild oat (Avena fatua), 14 days after application, read-out: Visual Growth Reduction (%) 14 Days After Application, AVEFA
[19] = CHEAL: lambsquarters (Chenopodium album), 14 days after application, read-out: Visual Growth Reduction (%) 14 Days After Application, CHEAL
[20] = CIRAR: canada thistle (Cirsium arvense), 14 days after application, read-out: Visual Growth Reduction (%) 14 Days After Application, CIRAR
[21] = CYPES: yellow nutsedge (Cyperus esculentus), 14 days after application, read-out: Visual Growth Reduction (%) 14 Days After Application, CYPES
[22] = DIGSA: crabgrass (Digitaria sanguinalis), 14 days after application, read-out: Visual Growth Reduction (%) 14 Days After Application, DIGSA

| Structure (SMILES) | pest or weed control at 140 g/ha [1] [%] | pest or weed control at 140 g/ha [2] [%] | pest or weed control at 140 g/ha [3] [%] | pest or weed control at 140 g/ha [4] [%] | pest or weed control at 140 g/ha [5] [%] | pest or weed control at 140 g/ha [6] [%] | pest or weed control at 140 g/ha [7] [%] | pest or weed control at 140 g/ha [8] [%] | pest or weed control at 140 g/ha [9] [%] | pest or weed control at 140 g/ha [10] [%] | pest or weed control at 140 g/ha [11] [%] | pest or weed control at 140 g/ha [12] [%] | pest or weed control at 140 g/ha [13] [%] | pest or weed control at 140 g/ha [16] [%] | pest or weed control at 140 g/ha [17] [%] | pest or weed control at 140 g/ha [18] [%] | pest or weed control at 140 g/ha [19] [%] | pest or weed control at 140 g/ha [20] [%] | pest or weed control at 140 g/ha [21] [%] | pest or weed control at 140 g/ha [22] [%] | also measured |
| --- | --- | --- | --- | --- | --- | --- | --- | --- | --- | --- | --- | --- | --- | --- | --- | --- | --- | --- | --- | --- | --- |
| COC(=O)c1nc(-c2ccc(C(F)(F)F)c(OC)c2)ccc1Cl [F296, Methyl 3-chloro-6-(3-methoxy-4-(trifluoromethyl)phenyl)picolinate] | 0 to 29 | 45 to 59 | 0 to 29 | 0 to 29 | 0 to 29 | 0 to 29 | 0 to 29 | 0 to 29 | 0 to 29 | 60 to 74 | 0 to 29 | 0 to 29 | 0 to 29 | – | – | – | – | – | – | – | pest or weed control at 140 g/ha [14]: 0 to 29%; pest or weed control at 140 g/ha [15]: 0 to 29% |
| COC(=O)c1nc(-c2ccc(C#N)cc2Cl)c(F)cc1Cl [F186, Methyl 3-chloro-6-(2-chloro-4-cyanophenyl)-5-fluoropicolinate] | 60 to 74 | 95 to 100 | 75 to 84 | 0 to 29 | 85 to 94 | 85 to 94 | 0 to 29 | 30 to 44 | – | – | – | – | – | 0 to 29 | 75 to 84 | 0 to 29 | 85 to 94 | 75 to 84 | 45 to 59 | 75 to 84 | – |
| COC(=O)c1nc(-c2ccc(SC(F)(F)F)cc2Cl)c(Cl)cc1Cl [F130, Methyl 3,5-dichloro-6-(2-chloro-4-((trifluoromethyl)thio)phenyl) picolinate] | 0 to 29 | 30 to 44 | 60 to 74 | 0 to 29 | 60 to 74 | 30 to 44 | 0 to 29 | 0 to 29 | – | – | – | – | – | 0 to 29 | 85 to 94 | 0 to 29 | 75 to 84 | 75 to 84 | 0 to 29 | 60 to 74 | – |
| COC(=O)c1nc(-c2ccc(Cl)cc2F)ccc1Cl [F270, Methyl 3-chloro-6-(4-chloro-2-fluorophenyl) picolinate] | 0 to 29 | 95 to 100 | 75 to 84 | 0 to 29 | 0 to 29 | 85 to 94 | 30 to 44 | 45 to 59 | 0 to 29 | 75 to 84 | 85 to 94 | 85 to 94 | 45 to 59 | – | – | – | – | – | – | – | pest or weed control at 140 g/ha [14]: 0 to 29%; pest or weed control at 140 g/ha [15]: 45 to 59% |
| COC(=O)c1nc(-c2ccc3cc[nH]c3c2F)ccc1Cl [F69, Methyl 3-chloro-6-(7-fluoro-1H-indol-6-yl)picolinate] | 0 to 29 | 0 to 29 | – | 0 to 29 | – | 0 to 29 | 0 to 29 | – | – | – | – | – | – | 0 to 29 | 0 to 29 | 0 to 29 | 0 to 29 | 0 to 29 | 0 to 29 | 0 to 29 | – |
| COC(=O)c1nc(-c2ccc(C(F)(F)F)cc2OC)ncc1Cl [F313, methyl 5-chloro-2-(2-methoxy-4-(trifluoromethyl)phenyl)pyrimidine-4-carboxylate] | 60 to 74 | 95 to 100 | 0 to 29 | 0 to 29 | 60 to 74 | 85 to 94 | 0 to 29 | 0 to 29 | 0 to 29 | 45 to 59 | 75 to 84 | 30 to 44 | 45 to 59 | – | – | – | – | – | – | – | pest or weed control at 140 g/ha [14]: 0 to 29%; pest or weed control at 140 g/ha [15]: 0 to 29% |
| O=C(O)c1nc(-c2ccc(C(F)(F)F)cc2)c(Cl)cc1Cl [F96, 3,5-Dichloro-6-(4-(trifluoromethyl)phenyl)picolinic acid] | 0 to 29 | 75 to 84 | 0 to 29 | 0 to 29 | 45 to 59 | 60 to 74 | 0 to 29 | 0 to 29 | – | – | – | – | – | 0 to 29 | 30 to 44 | 0 to 29 | 60 to 74 | 30 to 44 | 0 to 29 | 0 to 29 | – |
| O=C(OCc1cccc(C(F)(F)F)c1)c1nc(-c2ccc(C(F)(F)F)cc2Cl)ccc1Cl [F117, 3-(Trifluoromethyl) benzyl 3-chloro-6-(2-chloro-4-(trifluoromethyl)phenyl)picolinate] | 85 to 94 | 95 to 100 | 95 to 100 | 0 to 29 | 95 to 100 | 95 to 100 | 0 to 29 | 85 to 94 | – | – | – | – | – | 45 to 59 | 95 to 100 | 60 to 74 | 95 to 100 | 85 to 94 | 0 to 29 | 95 to 100 | – |
| COC(=O)c1nc(-c2ccc(C(F)(F)F)cc2C#N)ccc1Cl [F24, Methyl 3-chloro-6-(2-cyano-4-(trifluoromethyl)phenyl) picolinate] | 85 to 94 | 95 to 100 | 60 to 74 | 0 to 29 | 45 to 59 | 85 to 94 | 0 to 29 | 0 to 29 | – | – | – | – | – | 0 to 29 | 85 to 94 | 0 to 29 | 95 to 100 | 95 to 100 | 0 to 29 | 85 to 94 | – |
| COC(=O)c1nc(-c2ccc(O)cc2Cl)ccc1Cl [F355, methyl 3-chloro-6-(2-chloro-4-hydroxyphenyl)picolinate] | 0 to 29 | 0 to 29 | 0 to 29 | 0 to 29 | 0 to 29 | 0 to 29 | 0 to 29 | 0 to 29 | 0 to 29 | 75 to 84 | 0 to 29 | 0 to 29 | 0 to 29 | – | – | – | – | – | – | – | pest or weed control at 140 g/ha [14]: 0 to 29%; pest or weed control at 140 g/ha [15]: 0 to 29% |
